Results published in ChEMBL document CHEMBL1201862, “PubChem BioAssay data set” (2004).
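Tested at 5 concentrations; 48 h exposure; 96-well plates; endpoints linearly interpolated, else capped at highest concentration. GI50 marks 50% less growth.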 The source made the active and inactive calls. Cut-off read from the data, not from the text of the source: active = GI50 up to about 1.1 µM and inactive = higher.

How the values were obtained:
Assay in all cases: NCI anticancer screen, dose series, 48 h
SF-268 = tested on: SF-268
NCI-H226 = tested on: NCI-H226
OVCAR-8 = tested on: OVCAR-8
M14 = tested on: M14
CAKI-1 = tested on: CAKI-1
RXF 393 = tested on: RXF 393
ACHN = tested on: ACHN
UACC-257 = tested on: UACC-257
HCC 2998 = tested on: HCC 2998
KM12 = tested on: KM12
LOX IMVI = tested on: LOX IMVI
UO-31 = tested on: UO-31
SW-620 = tested on: SW-620
NCI-H23 = tested on: NCI-H23
OVCAR-4 = tested on: OVCAR-4
SR = tested on: SR
COLO 205 = tested on: COLO 205
TK-10 = tested on: TK-10
U-251 = tested on: U-251
MCF7 = tested on: MCF7

Measured: GI50

N#CCN1C(=O)c2cc([N+](=O)[O-])cc3cc([N+](=O)[O-])cc(c23)C1=O
inactive: SF-268 17 µM | NCI-H226 21.6 µM | OVCAR-8 13.8 µM | M14 17 µM | CAKI-1 23.9 µM | RXF 393 8.28 µM | ACHN 13.2 µM | UACC-257 15.1 µM | HCC 2998 15 µM | KM12 11.2 µM | LOX IMVI 6.41 µM | UO-31 13.8 µM | SW-620 7.53 µM | NCI-H23 15.9 µM | OVCAR-4 14.8 µM | SR 1.36 µM | COLO 205 11.4 µM | TK-10 27.7 µM | U-251 17.9 µM

O=C1C2C=CC(n3[nH]c(=O)n(Cc4ccccc4)c3=O)CC2C(=O)N1c1cccc(Cl)c1 (stereo unspecified)
inactive: SF-268 > 100 µM | NCI-H226 > 100 µM | OVCAR-8 > 100 µM | M14 > 100 µM | CAKI-1 > 100 µM | RXF 393 > 100 µM | ACHN > 100 µM | UACC-257 > 100 µM | HCC 2998 > 100 µM | KM12 > 100 µM | LOX IMVI > 100 µM | UO-31 > 100 µM | SW-620 > 100 µM | NCI-H23 > 100 µM | OVCAR-4 > 100 µM | SR > 100 µM | COLO 205 > 100 µM | TK-10 > 100 µM | U-251 > 100 µM

COc1ccc(Cc2c3cc(O)c([O-])cc3cc[n+]2C)cc1
inactive: SF-268 13.5 µM | NCI-H226 25.7 µM | OVCAR-8 29 µM | M14 11.4 µM | CAKI-1 8.55 µM | RXF 393 11.8 µM | ACHN 6.93 µM | UACC-257 28.4 µM | HCC 2998 42.6 µM | KM12 40.2 µM | LOX IMVI 13.3 µM | UO-31 9.95 µM | SW-620 36.1 µM | NCI-H23 29.8 µM | OVCAR-4 51.3 µM | SR 5.86 µM | COLO 205 39.1 µM | TK-10 98.4 µM | U-251 12.7 µM

OC1CCCN(C2(c3cccs3)CCCCC2)C1 (stereo unspecified)
inactive: SF-268 > 100 µM | OVCAR-8 > 100 µM | CAKI-1 > 100 µM | RXF 393 > 100 µM | ACHN > 100 µM | UACC-257 > 100 µM | HCC 2998 > 100 µM | KM12 > 100 µM | LOX IMVI > 100 µM | SW-620 > 100 µM | NCI-H23 > 100 µM | OVCAR-4 > 100 µM | MCF7 > 100 µM | COLO 205 > 100 µM | TK-10 > 100 µM | U-251 > 100 µM

CC1=CC(=O)CC2(C)CC[C@@H]3C[C@]12OC3(C)C (stereo partly specified)
inactive: SF-268 > 100 µM | NCI-H226 > 100 µM | OVCAR-8 > 100 µM | M14 > 100 µM | CAKI-1 > 100 µM | RXF 393 > 100 µM | ACHN > 100 µM | UACC-257 > 100 µM | HCC 2998 > 100 µM | KM12 > 100 µM | LOX IMVI > 100 µM | UO-31 > 100 µM | SW-620 > 100 µM | NCI-H23 > 100 µM | OVCAR-4 > 100 µM | SR > 100 µM | COLO 205 > 100 µM | TK-10 > 100 µM | U-251 > 100 µM

N=C1NC(=O)N2CC12 (stereo unspecified) [IMEXON]
inactive: SF-268 > 100 µM | NCI-H226 > 100 µM | OVCAR-8 > 100 µM | M14 > 100 µM | CAKI-1 > 100 µM | RXF 393 > 100 µM | ACHN > 100 µM | UACC-257 > 100 µM | HCC 2998 > 100 µM | KM12 > 100 µM | LOX IMVI > 100 µM | UO-31 > 100 µM | SW-620 > 100 µM | NCI-H23 > 100 µM | OVCAR-4 > 100 µM | SR 51.4 µM | COLO 205 > 100 µM | TK-10 > 100 µM | U-251 > 100 µM
